“Also recorded” adds a separate entry of the source. Where a name gives a salt, the structure may show the parent alone. Where a SMILES comes first, the peptide text is derived from it.
Tested on: MLO-Y4 osteocytes
Assay: High-throughput drug screening of primary cilia length and incidence
Type: cell-based
Settings: not given
Method: MLO-Y4 osteocytes were maintained on collagen I-coated dishes in MEMα (Life_Technologies) supplemented with 5% fetal bovine serum (FBS), 5% calf serum (CS), and 1% penicillin/streptomycin (P/S) at 37° C. and 5% CO2. Osteocytes were then seeded onto 384-well collagen-coated plates for 72 hours before fixation. […] These libraries include Tocris, Sigma LOPAC, Selleck Chemical, Prestwick, and Spectrum commercially available compound libraries. All cell seeding and plate handling was performed with the Perkin Elmer cell:explorer workstation.
Cells were fixed in 4% paraformaldehyde and permeabilized with 0.1% Triton-X 100 (Sigma). 10% goat serum (vendor) was used for blocking. Cilia were stained using a monoclonal antibody against acetylated α-tubulin (1:20) from a C3B9 hybridoma cell line, and visualized with A F488 (1:1000, ThermoFisher). Nuclei were visualized with Hoechst. Cells were imaged using a GE INCell 2000 high-throughput imager at 40× magnification. 4 fields of view were taken per well.
Each pair of nuclei and cilia images was first analyzed individually, then the entire population was examined to evaluate each compound's effect on cilia length and incidence. A custom MATLAB script was developed to perform all image analysis. This script first utilizes an enhanced implementation of a watershed transform, which is a segmentation tool which enables detection of similarly shaped overlapping particles in noisy images by the procedural whittling down of pixels found close to the edge of such particles. The augmentation of the algorithm incorporates thresholding for noise removal based on signal intensity and object size, nuclei dilation to exclude non-cellular artifacts, as well as skeletonization of cilia to quantify length. The results of the analysis are number of nuclei, number of cilia, and average cilia length in each image.
Compounds were selected based on deviation from the population mean. Each well was normalized to vehicle control images on each plate, allowing the establishment of a normalized population mean. Hits were chosen based on compounds whose triplicate mean was furthest (based on standard deviation away) from the population mean. […] Compounds were classified based on mechanism of action.
To identify compounds that modulate primary cilia formation a high-throughput platform was developed to automate cell culture, staining, imaging, and analysis, as shown in schematic form in FIG. 18. […] Cells were cultured on 384-well plates, and treated with small molecules with known biologic activity, enabling classification of mechanisms of action. Drug treatment was applied for 16 hours at 10 μM concentration, performed in triplicate, before fixation and immunostaining of primary cilia. Cells were then imaged using the GE INCell 2000 High Content Analyzer, capturing 4 fields of view per well at 40× magnification. Additionally, each plate contains 8 wells of DMSO vehicle control.
A MATLAB script was developed to detect and analyze changes in ciliogenesis. […] A representative exemplary image (FIG. 19A) is cropped to better display features, scale bar represents 30 μm. A custom MATLAB script was used to identify nuclei and cilia for analysis (FIG. 19B). […] Objects are further filtered based on size and signal intensity.
Cilia length and incidence for each field of view were normalized to vehicle control on that individual plate. This allowed development of a normalized population average and standard deviation. […] To control for toxic effects only small molecules with at least 40% viability, based on number of nuclei versus control, were selected as hits. Furthermore, compounds repeated between multiple libraries eliciting the same effect on cilia length or incidence were excluded, such that only one of the repeated compounds was selected as a hit.

Compound | Average Length SD Away [SD]
CC(C)(C)CC(C)(C)c1ccc(OCCOCC[N+](C)(C)Cc2ccccc2)cc1 [Benzethonium chloride] | 5.179

Same assay, conditions: 10 μM, 16 hours, triplicate; normalized to vehicle control; standard deviation away from the population average

Compound | Average Length SD Away [SD] | Average Incidence SD Away [SD]
CN(Cc1cnc2nc(N)nc(N)c2n1)c1ccc(C(=O)N[C@@H](CCC(=O)O)C(=O)O)cc1 (racemic) [Amethopterin (RS)] | 2.927 | –
C[C@@H](NC(=O)/C(C#N)=C/c1ccc(O)c(O)c1)c1ccccc1 (single isomer, unassigned) [Tyrphostin B44 (−) enantiomer] | 1.877 | –
O=C(/C=C/c1ccccc1)c1ccc(O[C@@H]2O[C@H](CO)[C@@H](O)[C@H](O)[C@H]2O)cc1O [2 4 -DIHYDROXYCHALCONE 4 -GLUCOSIDE] | 1.598 | –
COc1cc2c(cc1O)CC[C@@H]1[C@@H]2CC[C@]2(C)[C@@H](O)CC[C@@H]12 [2-Methoxyestradiol] | 1.62 | –
O=C1CN=C(c2cccc(Br)c2)c2oc3ccccc3c2N1 [5-BDBD] | 1.92 | –
O=c1[nH]cc(F)c(=O)[nH]1 [5-fluorouracil] | 1.775 | –
NC(=O)c1ccc(N)nc1 [6-AMINONICOTINAMIDE] | 2.008 | –
CC[C@@]1(O)C(=O)OCc2c1cc1n(c2=O)Cc2cc3cc(O)ccc3nc2-1 [10-HYDROXYCAMPTOTHECIN] | 2.11 | –
COc1ccc2oc(-c3ccccc3OC)cc(=O)c2c1 [62 -DIMETHOXYFLAVONE] | 1.745 | –
O.c1cnc2c(c1)ccc1cccnc12 [110-Phenanthroline monohydrate] | 1.838 | –
N#C/C(=C\c1ccc(O)c(O)c1)C(=O)Nc1ccccc1 [AG 494] | 1.575 | –
COc1ccc(C(=O)c2c(C)n(CCN3CCOCC3)c3cc(I)ccc23)cc1 [AM 630] | 1.741 | –
NC(=O)c1ncn([C@@H]2O[C@H](CO)[C@@H](O)[C@H]2O)c1N [Acadesine] | – | 1.847
CC(=O)Nc1ccccc1 [Acetanilide (Antifebrin), Acetanilide] | – | 1.696
CCC[S+]([O-])c1ccc2[nH]c(NC(=O)OC)nc2c1 (stereo not drawn) [Albendazole Oxide (Ricobendazole), Albendazole Oxide] | – | 2.017
CC(NC(C)(C)C)C(=O)c1cccc(Cl)c1 (stereo not drawn) [Amfebutamone (Bupropion), Amfebutamone] | – | 1.605
Cn1c(=O)c2[nH]cnc2n(C)c1=O.Cn1c(=O)c2[nH]cnc2n(C)c1=O.NCCN [Aminophylline ethylenediamine] | – | 2.59
CCCCc1oc2ccccc2c1C(=O)c1cc(I)c(OCCN(CC)CC)c(I)c1 [Amiodarone HCl] | – | 3.38
O=C1NC(=O)c2c1c1c3ccccc3[nH]c1c1[nH]c3ccccc3c21 [Arcyriaflavin A] | – | 1.892
COC(=O)[C@H](Cc1ccccc1)NC(=O)[C@@H](N)CC(=O)O [Aspartame] (H-Asp-Phe-OMe) | – | 1.732
CN1[C@@H]2CC[C@H]1C[C@@H](OC(=O)C(CO)c1ccccc1)C2 (stereo partly drawn) [Atropine] | – | 1.694
COc1ccc(C(=O)CC(=O)c2ccc(C(C)(C)C)cc2)cc1 [Avobenzone (Parsol 1789), Avobenzone] | – | 1.502
CN1C(=O)COc2c(C(=O)NC3CN4CCC3CC4)cc(Cl)cc21 (stereo not drawn) [Azasetron HCl] | – | 1.653
COc1ccc(-c2cc3nccn3c(Nc3ncccc3C(N)=O)n2)cc1OC.Cl.O [BAY 61-3606 hydrochloride hydrate] | 1.54 | –
CNCCc1ccccn1 [BETAHISTINE HYDROCHLORIDE] | 1.532 | –
C=CCN1C[C@H](C)N([C@H](c2ccc(C(=O)N(CC)CC)cc2)c2cccc(O)c2)C[C@H]1C [BW 373U86] | 1.553 | –

Compound | Average Length SD Away [SD] | Average Incidence SD Away [SD]
COC(=O)C1=C(C)NC(C)=C(C(=O)OC2CCCN(Cc3ccccc3)C2)C1c1cccc([N+](=O)[O-])c1 (stereo not drawn) [Benidipine hydrochloride] | – | 1.811
CC(C)NCC(O)COc1ccc(CCOCC2CC2)cc1 (stereo not drawn) [Betaxolol hydrochloride (Betoptic), Betaxolol hydrochloride] | – | 1.631
CC(C[N+](C)(C)C)OC(N)=O (stereo not drawn) [Bethanechol chloride] | – | 1.764
c1ccc(-c2ccc(C(c3ccccc3)n3ccnc3)cc2)cc1 (stereo not drawn) [Bifonazole] | – | 1.664
CN(Cc1cc(Br)cc(Br)c1N)C1CCCCC1 [Bromhexine HCl] | 1.547 | 1.882
CCCCOc1ccc(CC(=O)NO)cc1 [Bufexamac] | 3.676 | 2.326
CCCCN1CCCCC1C(=O)Nc1c(C)cccc1C (stereo not drawn) [Bupivacaine hydrochloride (Marcain), Bupivacaine hydrochloride] | – | 1.827
CCCCC/N=c1\ccn(Cc2ccccc2)c2ccccc12 [CP 339818 hydrochloride] | 1.715 | –
CCc1c2c(nc3ccc(OC(=O)N4CCC(N5CCCCC5)CC4)cc13)-c1cc3c(c(=O)n1C2)COC(=O)[C@]3(O)CC.Cl [CPT 11] | 1.894 | 1.633
CN1Cc2ccccc2[C@@H]2c3cccc4[nH]cc(c34)C[C@H]21 [CY 208-243] | 2.567 | –
C[C@@H]1C[C@@H]([C@H](O)CC2CC(=O)NC(=O)C2)C(=O)[C@@H](C)C1 [CYCLOHEXIMIDE] | 3.609 | –
CN/C(=N/CCSCc1nc[nH]c1C)NC#N [Cimetidine (Tagamet), Cimetidine] | – | 1.562
Nc1nc(Cl)nc2c1ncn2[C@H]1C[C@H](O)[C@@H](CO)O1 [Cladribine] | – | 1.604
CCCC(=O)OCOC(=O)C1=C(C)NC(C)=C(C(=O)OC)C1c1cccc(Cl)c1Cl (stereo not drawn) [Cleviprex (Clevidipine), Clevidipine] | – | 1.837
CC1(C)C(=O)C=C[C@]2(C)[C@H]3CC[C@@]4(C)[C@H](c5ccoc5)OC(=O)[C@H]5O[C@]54[C@]3(C)C(=O)C[C@@H]12 [DEACETOXY-7-OXOGEDUNIN] | 1.843 | –
COc1cc2c(cc1OC)[C@@H]1C(=O)c3ccc4c(c3O[C@@H]1CO2)C=CC(C)(C)O4 [DEGUELIN(−)] | 2.48 | –
C[C@H](CCC(=O)O)[C@H]1CC[C@H]2[C@@H]3C(=O)C[C@@H]4CC(=O)CC[C@]4(C)[C@H]3CC(=O)[C@]12C [DEHYDROCHOLIC ACID] | 1.611 | –
CC(=O)O[C@@H]1C[C@H]2C(C)(C)C(=O)C=C[C@]2(C)[C@H]2CC[C@]3(C)C(=CC(=O)O[C@H]3c3ccoc3)[C@@]21C [DEOXYGEDUNIN] | 2.161 | –
CC(=O)O[C@H]1C[C@@H](OC(C)=O)C(C)(C)[C@@H]2C[C@@H](OC(C)=O)[C@@]3(C)C4=CC(=O)O[C@@H](c5ccoc5)[C@]4(C)CC[C@@H]3[C@@]12C [DEOXYKHIVORIN] | 1.681 | –
COc1ccc2c(c1OC)OC[C@@H](c1ccc(OC)c(OC)c1OC)C2 [DUARTIN DIMETHYL ETHER] | 2.07 | –
Cc1cccc(Cc2c[nH]cn2)c1C [Detomidine HCl] | – | 1.922
Cc1cccc([C@H](C)c2cnc[nH]2)c1C [Dexmedetomidine HCl (Precedex), Dexmedetomidine HCl] | – | 2.924
O=C[C@H](O)[C@@H](O)[C@H](O)[C@H](O)CO [Dextrose (D-glucose), D-glucose] | – | 1.518
N#CC(c1ccc(Cl)cc1)c1c(Cl)cc(-n2ncc(=O)[nH]c2=O)cc1Cl (stereo not drawn) [Diclazuril] | – | 1.668
CN(C)CCOC(c1ccccc1)c1ccccc1 [Diphenhydramine HCl (Benadryl), Diphenhydramine HCl] | – | 1.928
c1ccc2c(c1)[I+]c1ccccc1-2 [Diphenyleneiodonium chloride] | 2.603 | –

Same assay, conditions: 10 μM, 16 hours; hit = 1.5 standard deviation above population average, at least 40% viability

Compound | classification as hit increasing cilia length in the screen
CCCCOc1ccc(CC(=O)NO)cc1 [Bufexamac] | listed as a hit increasing length; also recorded: listed as hits

From patent US20190015423A1, “REGULATION OF GENE EXPRESSION BY MODULATING PRIMARY CILIA LENGTH” (THE TRUSTEES OF COLUMBIA UNIVERSITY IN THE CITY OF NEW YORK, priority 2016, published 2019)
